# Assay results from ChEMBL document CHEMBL1201862, “PubChem BioAssay data set” (2004).
#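 These data come from cells grown in 96-well plates and exposed to compound for 48 hours at five concentrations. At the GI50, growth is halved.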 Active and inactive are the calls of the source. Cut-off read from the data, not from the text of the source: active = GI50 up to about 1.1 µM and inactive = higher.
# Experiments:
# Assay in all cases: NCI anticancer screen, dose series, 48 h
# ACHN = test system: ACHN
# CAKI-1 = test system: CAKI-1
# EKVX = test system: EKVX
# HOP-92 = test system: HOP-92
# KM-20L2 = test system: KM-20L2
# LXFL 529 = test system: LXFL 529
# M14 = test system: M14
# NCI-H23 = test system: NCI-H23
# NCI-H522 = test system: NCI-H522
# SF-268 = test system: SF-268
# SK-OV-3 = test system: SK-OV-3
# SNB-75 = test system: SNB-75
# SR = test system: SR
# TK-10 = test system: TK-10
# UACC-257 = test system: UACC-257
# UO-31 = test system: UO-31
# DU-145 = test system: DU-145
# Hs-578T = test system: Hs-578T
# NCI/ADR-RES = test system: NCI/ADR-RES
# DMS-273 = test system: DMS-273
Compound,GI50 (ACHN),GI50 (CAKI-1),GI50 (EKVX),GI50 (HOP-92),GI50 (KM-20L2),GI50 (LXFL 529),GI50 (M14),GI50 (NCI-H23),GI50 (NCI-H522),GI50 (SF-268),GI50 (SK-OV-3),GI50 (SNB-75),GI50 (SR),GI50 (TK-10),GI50 (UACC-257),GI50 (UO-31),GI50 (DU-145),GI50 (Hs-578T),GI50 (NCI/ADR-RES),GI50 (DMS-273)
O=C1c2ccccc2C(=O)c2c1ccc1c2N=C(c2ccc(F)cc2)CC(c2ccc(Cl)c(Cl)c2)N1 (stereo unspecified),13.9 µM (inactive),3.27 µM (inactive),3.96 µM (inactive),22.7 µM (inactive),15.7 µM (inactive),16 µM (inactive),18.2 µM (inactive),16.6 µM (inactive),7.29 µM (inactive),15.2 µM (inactive),12.7 µM (inactive),20.5 µM (inactive),5.93 µM (inactive),13.8 µM (inactive),23.7 µM (inactive),10.8 µM (inactive),–,–,–,–
CC1OC(OC2C(OC(=O)[C@@H]3CC(C)(C)C[C@H]4C5=CC[C@@H]6[C@@]7(C)C[C@H](O)[C@H](OC8OC(CO)C(O)C(O)C8O)[C@@](C)(CO)[C@@H]7[C@H](O)C[C@@]6(C)[C@]5(C)CC[C@@]34C)OCC(O)C2O)C(O)C(O)C1O (stereo partly specified),> 7.5 µM (inactive),> 7.5 µM (inactive),> 7.5 µM (inactive),> 7.5 µM (inactive),–,–,> 7.5 µM (inactive),> 7.5 µM (inactive),> 7.5 µM (inactive),> 7.5 µM (inactive),> 7.5 µM (inactive),> 7.5 µM (inactive),–,> 7.5 µM (inactive),> 7.5 µM (inactive),> 7.5 µM (inactive),> 7.5 µM (inactive),> 7.5 µM (inactive),> 7.5 µM (inactive),–
C=CC(OCC)(OCC)OCC,> 100 µM (inactive),> 100 µM (inactive),> 100 µM (inactive),> 100 µM (inactive),> 100 µM (inactive),77.3 µM (inactive),> 100 µM (inactive),> 100 µM (inactive),> 100 µM (inactive),> 100 µM (inactive),> 100 µM (inactive),> 100 µM (inactive),29.9 µM (inactive),> 100 µM (inactive),> 100 µM (inactive),> 100 µM (inactive),–,–,–,18.2 µM (inactive)
CCOC(=O)CNC(=O)N(CC)C12CC3CC(CC(C3)C1)C2,–,147 µM (inactive),157 µM (inactive),60.1 µM (inactive),117 µM (inactive),–,–,159 µM (inactive),123 µM (inactive),143 µM (inactive),123 µM (inactive),131 µM (inactive),–,–,122 µM (inactive),149 µM (inactive),–,–,151 µM (inactive),132 µM (inactive)
O=C(O)CN1CCCC(Cc2c[nH]c3ccccc23)C1 (stereo unspecified),> 100 µM (inactive),> 100 µM (inactive),> 100 µM (inactive),> 100 µM (inactive),–,–,> 100 µM (inactive),> 100 µM (inactive),–,> 100 µM (inactive),> 100 µM (inactive),> 100 µM (inactive),–,> 100 µM (inactive),> 100 µM (inactive),> 100 µM (inactive),> 100 µM (inactive),> 100 µM (inactive),> 100 µM (inactive),–
NC(=O)Nc1cc(O)ccc1/N=N/c1ccc(S(=O)(=O)Nc2ccccn2)cc1,> 100 µM (inactive),> 100 µM (inactive),> 100 µM (inactive),> 100 µM (inactive),> 100 µM (inactive),> 100 µM (inactive),> 100 µM (inactive),> 100 µM (inactive),> 100 µM (inactive),> 100 µM (inactive),> 100 µM (inactive),> 100 µM (inactive),–,> 100 µM (inactive),> 100 µM (inactive),> 100 µM (inactive),–,–,–,> 100 µM (inactive)
O=C1c2cccc3cc4ccccc4c(c23)C(=O)N1CCNCCN1C(=O)c2cccc3cc4ccccc4c(c23)C1=O,–,0.245 µM (active),0.587 µM (active),0.449 µM (active),0.518 µM (active),–,–,0.364 µM (active),1.53 µM (inactive),1.22 µM (inactive),1.34 µM (inactive),0.373 µM (active),–,–,1.27 µM (inactive),0.277 µM (active),–,–,0.522 µM (active),0.277 µM (active)
COC(=O)C1=CC[C@@H]2C(C(=O)O)=CO[C@@H](OC3OC(CO)C(O)C(O)C3O)[C@H]12 (stereo partly specified),–,> 300 µM (inactive),> 300 µM (inactive),> 110 µM (inactive),> 300 µM (inactive),–,–,> 300 µM (inactive),> 300 µM (inactive),> 300 µM (inactive),> 300 µM (inactive),> 300 µM (inactive),–,–,> 300 µM (inactive),> 300 µM (inactive),–,–,> 300 µM (inactive),> 300 µM (inactive)
CCC1OC(=O)C(C)C(OC2CC(C)(O)C(O)C(C)O2)C(C)C(O)C(C)(O)CC(C)C(=O)C(C)C(O)C1C (stereo unspecified),–,> 300 µM (inactive),> 300 µM (inactive),30 µM (inactive),> 300 µM (inactive),–,–,> 300 µM (inactive),> 300 µM (inactive),> 300 µM (inactive),> 300 µM (inactive),> 300 µM (inactive),–,–,> 300 µM (inactive),> 300 µM (inactive),–,–,> 300 µM (inactive),> 300 µM (inactive)
COc1cc(OC)c(SSCCCCS(=O)O)c(OC)c1,16.1 µM (inactive),> 10 µM (inactive),13.7 µM (inactive),–,18.7 µM (inactive),12.2 µM (inactive),14.3 µM (inactive),15.4 µM (inactive),6.65 µM (inactive),15.5 µM (inactive),23.8 µM (inactive),10.6 µM (inactive),–,21.3 µM (inactive),10.7 µM (inactive),18.3 µM (inactive),–,–,–,16.7 µM (inactive)
CSc1sc(=S)sc1SC,–,1 µM (active),> 100 µM (inactive),> 100 µM (inactive),> 100 µM (inactive),–,–,> 100 µM (inactive),> 100 µM (inactive),> 100 µM (inactive),> 100 µM (inactive),46.9 µM (inactive),–,–,> 100 µM (inactive),> 100 µM (inactive),–,–,25.7 µM (inactive),77.8 µM (inactive)
C=C1C(=O)OC2CC(C)C3C4OC4C(O)C3(C)C(O)C12 (stereo unspecified),–,22.8 µM (inactive),20 µM (inactive),23.6 µM (inactive),14.1 µM (inactive),–,–,14.4 µM (inactive),9.42 µM (inactive),23.8 µM (inactive),44.9 µM (inactive),41.7 µM (inactive),–,–,37.8 µM (inactive),80.2 µM (inactive),–,–,20.7 µM (inactive),18.4 µM (inactive)
COc1ccc(/C=C2\Oc3cc(OC(C)=O)ccc3C2=O)cc1,> 100 µM (inactive),21.1 µM (inactive),> 100 µM (inactive),–,–,–,> 100 µM (inactive),> 100 µM (inactive),19 µM (inactive),> 100 µM (inactive),> 100 µM (inactive),> 100 µM (inactive),60.8 µM (inactive),> 100 µM (inactive),> 100 µM (inactive),> 100 µM (inactive),> 100 µM (inactive),> 100 µM (inactive),> 100 µM (inactive),–
CC1CC2C3CC(F)C4=CC(=O)C=CC4(C)C3(F)C(O)CC2(C)C1(O)C(=O)COC(=O)C(C)(C)C (stereo unspecified),32.7 µM (inactive),> 100 µM (inactive),> 100 µM (inactive),> 100 µM (inactive),> 100 µM (inactive),–,> 100 µM (inactive),> 100 µM (inactive),71 µM (inactive),64.4 µM (inactive),–,82.2 µM (inactive),> 100 µM (inactive),77.1 µM (inactive),57.9 µM (inactive),> 100 µM (inactive),–,–,–,> 100 µM (inactive)
O=C1C[C@H](c2ccccc2)C2(C(=O)c3ccccc3C2=O)[C@@H](c2ccccc2)C1,–,7.59 µM (inactive),–,13.6 µM (inactive),–,–,6.24 µM (inactive),32.5 µM (inactive),30.2 µM (inactive),–,21.2 µM (inactive),28.4 µM (inactive),92.7 µM (inactive),–,–,33.3 µM (inactive),48.6 µM (inactive),17.1 µM (inactive),23.2 µM (inactive),–
CCC1C[N+]23CCc4c([nH]c5ccccc45)C2CC1CC3 (stereo unspecified),> 100 µM (inactive),49.1 µM (inactive),> 100 µM (inactive),82.6 µM (inactive),97.1 µM (inactive),33.8 µM (inactive),> 100 µM (inactive),69.2 µM (inactive),55.1 µM (inactive),> 100 µM (inactive),> 100 µM (inactive),98.9 µM (inactive),39.3 µM (inactive),74.3 µM (inactive),50.1 µM (inactive),41.4 µM (inactive),–,–,–,55.5 µM (inactive)
CCC/C=C/C=C\C(=O)O[C@@H]1[C@@H](C)[C@]2(O)[C@@H]3C=C(C)C(=O)[C@H]3CC(COC(C)=O)=C[C@H]2[C@@H]2C(C)(C)[C@]12OC(C)=O,–,26.1 µM (inactive),49.9 µM (inactive),43.8 µM (inactive),44.4 µM (inactive),–,–,33.7 µM (inactive),27.7 µM (inactive),39.7 µM (inactive),81.7 µM (inactive),57.7 µM (inactive),–,–,42.9 µM (inactive),46.5 µM (inactive),–,–,50.7 µM (inactive),22.6 µM (inactive)
O=C(O)c1cccc2cccc(-c3c4ccc(=O)cc-4oc4cc(O)ccc34)c12,> 100 µM (inactive),> 100 µM (inactive),> 100 µM (inactive),–,–,–,> 100 µM (inactive),> 100 µM (inactive),> 100 µM (inactive),> 100 µM (inactive),33.4 µM (inactive),60.1 µM (inactive),–,> 100 µM (inactive),> 100 µM (inactive),> 100 µM (inactive),> 100 µM (inactive),93.1 µM (inactive),> 100 µM (inactive),–
